For six compounds, GI50 and TGI results are on record in PubChem BioAssay (NCI).

Test in all cases: DTP human tumour cell line panel, 48 h
Assay [1] deals with CAKI-1 renal.
For assay [2], the system named is ACHN renal.
The subject of assay [3] is A498 renal.
Assay [4] deals with UO-31 renal.
Assay [5] has as its system RXF 393 renal.
Assay [6] has as its system HCT-116 colon.
The test system of assay [7] is RPMI-8226 leukemia.
Assay [8] deals with SF-295 CNS.
Assay [9] has as its system MOLT-4 leukemia.
The subject of assay [10] is MDA-MB-435.

Values joined by “and” are separate entries in the source; they are usually repeats but may differ in a detail not shown here. Equal values may be shown once.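 How tested: cells in 96-well plates exposed to compound for 48 hours at five concentrations. GI50: concentration for 50% inhibition of growth. TGI: total growth inhibition.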

A word on the GI50: it is the concentration at which growth is held to half of that of the control. A word on the TGI: it is the concentration at which net growth stops. Low values mean greater sensitivity of the cells, high ones lower sensitivity of the cells. Consider `Cn1c(=O)c(Sc2ccccc2F)cc2cnc(NC3CCOCC3)nc21`, for which the GI50 in assay [1], in assay [2], in assay [3], in assay [4], in assay [5] and in assay [6] was more than 25 µM each time. The GI50 in assay [7], in assay [8], in [9] and in assay [10] was more than 25 µM in each case. Also, the TGI in [1], in assay [2], in [3], in assay [4], in [5] and in assay [6] was more than 25 µM in each case. Besides, the TGI in assay [7], in [8], in assay [9] and in assay [10] was more than 25 µM each time.

On to `COc1c(Nc2ncc(Cl)c(N[C@@H]3[C@H]4C=CC(C4)[C@@H]3C(N)=O)n2)ccc2c1CC[C@@H](N1CCOCC1)CC2`, for which the GI50 in assay [1] is 3.08 µM; in assay [2] it was 2.66 µM; in assay [3] it was 1.39 µM; in assay [4] it was 2.07 µM; in [5], 1.64 µM; in assay [6], 2.52 µM. Moreover, the GI50 in assay [7] was 4.28 µM; in assay [8], 4.47 µM; in assay [9], 4.05 µM; in [10], 2.72 µM. Also, the TGI in assay [1] came out at 14.2 µM; in [2], 24.3 µM; in [3] it was 4.79 µM; in [4] it was 10.7 µM; in assay [5] it was 6.54 µM; in [6], 10.3 µM. Also, the TGI in assay [7] was 28.5 µM; in assay [8], 17.8 µM; in assay [9], 35.5 µM; in assay [10] it was 15.7 µM.

On to `COc1cccc(C2=NN(C(C)=O)C(c3cc(OC)c(OC)c(OC)c3)C2)c1` (stereo not given), for which the GI50 was 2.79 µM in assay [1]; 16 µM in assay [2]; 6.44 µM in assay [3]; 7.65 µM in assay [4]; 4.02 µM in assay [5]; 2.59 µM in assay [6]. Further, the GI50 is 1.08 µM in assay [7], 0.576 µM in assay [8], 3.67 µM in assay [9] and 0.224 µM in assay [10]. Further, the TGI is more than 100 µM in assay [1]; more than 100 µM in assay [2]; more than 30 µM in assay [3]; more than 100 µM in assay [4]; more than 100 µM in assay [5]; more than 100 µM in [6]. Also, the TGI was 4.36 µM in assay [7], 3.98 µM in assay [8], more than 100 µM in assay [9] and 0.782 µM in assay [10].

As to `CCN(CC)CCC(CNc1c2ccc([N+](=O)[O-])cc2nc2cc(OC)c(OC)cc12)c1ccccc1` (stereo not given), the GI50 was 1.68 µM and 1.58 µM in assay [1]; 0.553 µM and 0.518 µM in [2]; 1.69 µM and 1.19 µM in assay [3]; 1.1 µM and 0.956 µM in assay [4]; 0.541 µM and 0.228 µM in assay [5]; 0.0898 µM and 0.0472 µM in assay [6]. Further, the GI50 was 0.272 µM and 0.0638 µM in assay [7]; 1.09 µM and 0.93 µM in [8]; 0.317 µM and 0.444 µM in assay [9]; 0.161 µM and 0.148 µM in assay [10]. For the same compound, the TGI was 3.78 µM and 3.76 µM in assay [1]; 2.07 µM and 2.06 µM in assay [2]; 3.12 µM and 2.52 µM in assay [3]; 2.43 µM and 2.6 µM in assay [4]; 1.77 µM and 0.662 µM in assay [5]; 1.14 µM and 0.491 µM in assay [6]. For the same compound, the TGI was 1.15 µM and 0.411 µM in [7]; 2.49 µM and 2.65 µM in assay [8]; 2.41 µM and 5.93 µM in assay [9]; 0.311 µM and 0.319 µM in assay [10].

On to `CNC(=O)c1cc(Oc2ccc3nc(NC(=O)c4cc(C(F)(F)F)cc(C(F)(F)F)c4)sc3c2)ccn1`, for which the GI50 in assay [1] is 2.75 µM; in [2], 3.26 µM; in [3] it was 1.45 µM; in assay [4], 2.19 µM; in assay [5], 2.79 µM; in assay [6], 3.41 µM. The GI50 is 2.42 µM in [7], 2.56 µM in [8], 2.62 µM in [9] and 3.28 µM in [10]. Besides, the TGI came out at 10.7 µM in assay [1]; 11.8 µM in [2]; 4.51 µM in assay [3]; 8.95 µM in assay [4]; 8.37 µM in assay [5]; 11.9 µM in assay [6]. The concentration for total growth inhibition (TGI) in assay [7] was more than 100 µM; in assay [8] it was 10.5 µM; in assay [9], 12.4 µM; in [10], 20.4 µM.

Consider `S=c1cn[nH]c2ccc(Br)cc12`, for which the TGI in assay [1] is more than 100 µM; in assay [2] it was more than 100 µM; in [3], more than 100 µM; in assay [4], more than 100 µM; in [5], 70.7 µM; in [6] it was more than 100 µM. Moreover, the TGI in assay [7], in assay [8], in assay [9] and in assay [10] was more than 100 µM throughout.
